Experiments:
Test in all cases: relative viability (nuclei count vs DMSO), 5 days (fraction); higher = more cells survive
NCI-H2347 = test system: NCI-H2347
How it was run: (§1)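 Relative viability divides the nuclei count in treated wells by that in vehicle wells. Lung cancer cell lines were seeded in 1536-well plates, dosed by pin tool the next day, and fixed and stained after 5 days in one step with final 0.05% Triton X-100, 1% formaldehyde and 1 ug/ml Hoechst. Dosing was a single drug or a fixed anchor-drug dose plus five library-drug doses (not always all listed) in √10 steps, and values are medians of duplicate plates imaged at 4×.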

NCI-H596 = test system: NCI-H596
How it was run: as §1

HCC-78 = test system: HCC-78
How it was run: as §1

HCC-366 = test system: HCC-366
How it was run: as §1

ChaGo-K-1 = test system: ChaGo-K-1
How it was run: as §1

NCI-H1355 = test system: NCI-H1355
How it was run: as §1

NCI-H1734 = test system: NCI-H1734
How it was run: as §1

RERF-LC-KJ = test system: RERF-LC-KJ
How it was run: as §1

CAL-12T = test system: CAL-12T
How it was run: as §1

EMC-BAC-2 = test system: EMC-BAC-2
How it was run: as §1

NCI-H2085 = test system: NCI-H2085
How it was run: as §1

NCI-H2405 = test system: NCI-H2405
How it was run: as §1

HOP-62 = test system: HOP-62
How it was run: as §1

PC-14 = test system: PC-14
How it was run: as §1

NCI-H838 = test system: NCI-H838
How it was run: as §1

NCI-H2228 = test system: NCI-H2228
How it was run: as §1

NCI-H1993 = test system: NCI-H1993
How it was run: as §1

LK-2 = test system: LK-2
How it was run: as §1

LC-2-ad = test system: LC-2-ad
How it was run: as §1

NCI-H2009 = test system: NCI-H2009
How it was run: as §1

NCI-H3122 = test system: NCI-H3122
How it was run: as §1

SW 1573 = test system: SW 1573
How it was run: as §1

SK-MES-1 = test system: SK-MES-1
How it was run: as §1

With `O=c1[nH]c2ccccc2n1C1CCN(CCCC(c2ccc(F)cc2)c2ccc(F)cc2)CC1` [Pimozide] + COc1cc2c(Oc3ccc(NC(=O)C4(C(=O)Nc5ccc(F)cc5)CC4)cc3F)ccnc2cc1OCCCN1CCOCC1 [Foretinib] (partner 0.25 µM) the relative viability (NCI-H2347; first compound 0.08 µM) was 0.883, the relative viability (NCI-H2347; first compound 0.253 µM) was 0.622 and the relative viability (NCI-H2347; first compound 0.8 µM) was 0.964. For the same compound, the relative viability (NCI-H2347; first compound 2.53 µM) was 1.35, the relative viability (NCI-H2347; first compound 8 µM) was 1.07 and the relative viability (NCI-H596; first compound 0.08 µM) was 0.883. The relative viability (NCI-H596; first compound 0.253 µM) was 0.902, the relative viability (NCI-H596; first compound 0.8 µM) was 1.02 and the relative viability (NCI-H596; first compound 2.53 µM) was 0.78. It also gave a relative viability (NCI-H596; first compound 8 µM) of 0.821, a relative viability (HCC-78; first compound 0.08 µM) of 0.536 and a relative viability (HCC-78; first compound 0.8 µM) of 0.482. It also gave a relative viability (HCC-78; first compound 2.53 µM) of 0.564, a relative viability (HCC-78; first compound 8 µM) of 0.573 and a relative viability (HCC-366; first compound 0.08 µM) of 0.862. It also gave a relative viability (HCC-366; first compound 0.253 µM) of 0.952, a relative viability (HCC-366; first compound 0.8 µM) of 0.866 and a relative viability (HCC-366; first compound 2.53 µM) of 0.925. For the same compound, the relative viability (HCC-366; first compound 8 µM) was 0.859, the relative viability (ChaGo-K-1; first compound 0.08 µM) was 0.937 and the relative viability (ChaGo-K-1; first compound 0.253 µM) was 0.899. For the same compound, the relative viability (ChaGo-K-1; first compound 0.8 µM) was 0.879, the relative viability (ChaGo-K-1; first compound 2.53 µM) was 0.811 and the relative viability (ChaGo-K-1; first compound 8 µM) was 0.908. The relative viability (NCI-H1355; first compound 0.08 µM) was 0.808, the relative viability (NCI-H1355; first compound 0.253 µM) was 0.923 and the relative viability (NCI-H1355; first compound 0.8 µM) was 0.888. It also gave a relative viability (NCI-H1355; first compound 2.53 µM) of 0.886, a relative viability (NCI-H1355; first compound 8 µM) of 1 and a relative viability (NCI-H1734; first compound 0.08 µM) of 0.77. The relative viability (NCI-H1734; first compound 0.253 µM) was 0.767, the relative viability (NCI-H1734; first compound 2.53 µM) was 0.883 and the relative viability (NCI-H1734; first compound 8 µM) was 0.834. It also gave a relative viability (RERF-LC-KJ; first compound 0.08 µM) of 0.907, a relative viability (RERF-LC-KJ; first compound 0.253 µM) of 0.844 and a relative viability (RERF-LC-KJ; first compound 0.8 µM) of 0.831. The relative viability (RERF-LC-KJ; first compound 2.53 µM) was 0.821, the relative viability (RERF-LC-KJ; first compound 8 µM) was 0.848 and the relative viability (CAL-12T; first compound 0.08 µM) was 0.979. It also gave a relative viability (CAL-12T; first compound 0.253 µM) of 1.17, a relative viability (CAL-12T; first compound 0.8 µM) of 1.11 and a relative viability (CAL-12T; first compound 2.53 µM) of 0.928. It also gave a relative viability (CAL-12T; first compound 8 µM) of 0.96, a relative viability (EMC-BAC-2; first compound 0.08 µM) of 0.989 and a relative viability (EMC-BAC-2; first compound 0.253 µM) of 1.03. For the same compound, the relative viability (EMC-BAC-2; first compound 0.8 µM) was 0.986, the relative viability (EMC-BAC-2; first compound 2.53 µM) was 0.841 and the relative viability (EMC-BAC-2; first compound 8 µM) was 0.686. The relative viability (NCI-H2085; first compound 0.08 µM) was 0.956, the relative viability (NCI-H2085; first compound 0.253 µM) was 0.899 and the relative viability (NCI-H2085; first compound 0.8 µM) was 1.1. It also gave a relative viability (NCI-H2085; first compound 2.53 µM) of 0.909, a relative viability (NCI-H2085; first compound 8 µM) of 0.949 and a relative viability (NCI-H2405; first compound 0.08 µM) of 1.03. The relative viability (NCI-H2405; first compound 0.253 µM) was 1.02, the relative viability (NCI-H2405; first compound 0.8 µM) was 1.04 and the relative viability (NCI-H2405; first compound 2.53 µM) was 0.961. It also gave a relative viability (NCI-H2405; first compound 8 µM) of 0.838, a relative viability (HOP-62; first compound 0.08 µM) of 1.05 and a relative viability (HOP-62; first compound 0.253 µM) of 1.14. The relative viability (HOP-62; first compound 2.53 µM) was 1.04, the relative viability (HOP-62; first compound 8 µM) was 1.03 and the relative viability (PC-14; first compound 0.253 µM) was 1. It also gave a relative viability (PC-14; first compound 0.8 µM) of 0.943, a relative viability (PC-14; first compound 2.53 µM) of 0.965 and a relative viability (PC-14; first compound 8 µM) of 1.02. The relative viability (NCI-H838; first compound 0.08 µM) was 1.02, the relative viability (NCI-H838; first compound 0.253 µM) was 1.11 and the relative viability (NCI-H838; first compound 0.8 µM) was 1.08. For the same compound, the relative viability (NCI-H838; first compound 2.53 µM) was 1.03, the relative viability (NCI-H838; first compound 8 µM) was 1.04 and the relative viability (NCI-H2228; first compound 0.08 µM) was 0.863. It also gave a relative viability (NCI-H2228; first compound 0.253 µM) of 0.839, a relative viability (NCI-H2228; first compound 0.8 µM) of 0.574 and a relative viability (NCI-H2228; first compound 2.53 µM) of 0.831. The relative viability (NCI-H2228; first compound 8 µM) was 0.612, the relative viability (NCI-H1993; first compound 0.08 µM) was 0.705 and the relative viability (NCI-H1993; first compound 0.253 µM) was 0.777. It also gave a relative viability (NCI-H1993; first compound 0.8 µM) of 0.727, a relative viability (NCI-H1993; first compound 2.53 µM) of 0.788 and a relative viability (NCI-H1993; first compound 8 µM) of 0.851. For the same compound, the relative viability (LK-2; first compound 0.08 µM) was 1.65, the relative viability (LK-2; first compound 0.253 µM) was 0.98 and the relative viability (LK-2; first compound 2.53 µM) was 0.875. For the same compound, the relative viability (LK-2; first compound 8 µM) was 1.24, the relative viability (LC-2-ad; first compound 0.08 µM) was 0.911 and the relative viability (LC-2-ad; first compound 0.253 µM) was 0.928. It also gave a relative viability (LC-2-ad; first compound 0.8 µM) of 0.909, a relative viability (LC-2-ad; first compound 2.53 µM) of 0.901 and a relative viability (LC-2-ad; first compound 8 µM) of 0.868. It also gave a relative viability (NCI-H2009; first compound 0.08 µM) of 1.24, a relative viability (NCI-H2009; first compound 0.253 µM) of 1.12 and a relative viability (NCI-H2009; first compound 0.8 µM) of 1.19. It also gave a relative viability (NCI-H2009; first compound 2.53 µM) of 1.09, a relative viability (NCI-H2009; first compound 8 µM) of 1.13 and a relative viability (NCI-H3122; first compound 0.08 µM) of 0.911. For the same compound, the relative viability (NCI-H3122; first compound 0.253 µM) was 1, the relative viability (NCI-H3122; first compound 0.8 µM) was 0.91 and the relative viability (NCI-H3122; first compound 2.53 µM) was 0.968. For the same compound, the relative viability (NCI-H3122; first compound 8 µM) was 0.923, the relative viability (SW 1573; first compound 0.08 µM) was 0.803 and the relative viability (SW 1573; first compound 0.253 µM) was 0.946. For the same compound, the relative viability (SW 1573; first compound 0.8 µM) was 0.86, the relative viability (SW 1573; first compound 2.53 µM) was 0.892 and the relative viability (SW 1573; first compound 8 µM) was 1.04. It also gave a relative viability (SK-MES-1; first compound 0.08 µM) of 0.614, a relative viability (SK-MES-1; first compound 0.253 µM) of 0.955 and a relative viability (SK-MES-1; first compound 0.8 µM) of 1.06. The relative viability (SK-MES-1; first compound 2.53 µM) was 1.06 and the relative viability (SK-MES-1; first compound 8 µM) was 0.94.

Reference: the supplement of paper PMC10307832
